Source: patent publication EP4692094A1 (Beijing Konruns Pharmaceutical Co., Ltd., priority 2023, dated 2024)

Experiments:
CYP1A2 = target: T1, CYP1A2 (Homo sapiens, UniProt P05177); assay: Inhibitory effect on P450 enzymes in vitro (human liver microsomes), CYP1A2; assay type: in vitro ADME; details: probe phenacetin, final concentration 10 µM, substrate phenacetin, read-out: % inhibition rate CYP1A2 (phenacetin)
T1 construct: from tissue; host or cells: human liver microsomes
T1 sequence (P05177 1-516): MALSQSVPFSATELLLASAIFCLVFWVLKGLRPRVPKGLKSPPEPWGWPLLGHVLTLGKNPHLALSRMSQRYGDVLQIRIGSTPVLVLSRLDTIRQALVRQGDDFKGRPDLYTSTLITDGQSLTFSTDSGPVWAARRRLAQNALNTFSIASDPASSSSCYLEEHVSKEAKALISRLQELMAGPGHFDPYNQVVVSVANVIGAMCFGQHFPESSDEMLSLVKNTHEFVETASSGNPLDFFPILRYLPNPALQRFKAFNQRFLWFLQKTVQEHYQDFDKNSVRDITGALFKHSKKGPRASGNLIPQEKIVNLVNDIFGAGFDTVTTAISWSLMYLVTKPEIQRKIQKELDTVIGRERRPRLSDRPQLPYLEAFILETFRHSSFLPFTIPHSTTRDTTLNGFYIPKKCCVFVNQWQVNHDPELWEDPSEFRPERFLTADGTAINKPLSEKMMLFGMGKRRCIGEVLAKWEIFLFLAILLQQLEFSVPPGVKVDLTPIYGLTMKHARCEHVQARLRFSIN
Method: (§1) 1.1 Preparation of compounds: The compounds prepared in the examples were each dissolved in dimethylsulfoxide to give solutions at a concentration of 2 mmol/L.
(§2) 1.2 Test methods: • 1) Incubation system: human liver microsomes, a MgCl2 solution, a phosphate buffer solution, and a substrate solution were each added a 96-well deep-well plate and mixed homogenously. In the final incubation system, the concentration of the human liver microsomes was 0.2 mg/mL, and the final concentrations of the MgCl2 solution and the phosphate buffer solution were 5 mM and 100 mM, respectively. • 2) 1 µL of the substrate solution was added to the incubation system, and the final concentrations of CYP1A2 phenacetin, 2C8 paclitaxel […], 2C19 mephenytoin, 2D6 midazolam, and 3A midazolam substrates were 40 µM (phenacetin), 5 µM (paclitaxel), 50 µM (mephenytoin), 10 µM (mephenytoin), 5 µM (midazolam), and 50 µM […], respectively. • 3) 1 µL of the example compound or vehicle (DMSO) was added to the incubation system, and the incubation system was pre-warmed for 5 min in a 37 °C water bath before starting the reaction with 20 µL of 10 mM NADPH solution.
(§3) 1.3 Sample treatment: Within the designated time (20 min for phenacetin, 10 min for paclitaxel, 20 min for mephenytoin, 20 min for dextromethorphan, 5 min for midazolam, and 10 min for testosterone), 400 µL of methanol containing the internal standard was added to terminate the reaction, and the mixture was vortexed and mixed homogeneously. Then, the deep-well plate was centrifuged at 3220 g and 4 °C for 40 min. 100 µL of the supernatant was transferred into a new plate, and 150 µL of purified water was added. The mixture was mixed homogenously for LC-MS/MS analysis. Table 11. Inhibitory effects of some compounds in the examples on CYP enzymes

CYP2C8 = target: T2, CYP2C8 (Homo sapiens, UniProt P10632); assay: Inhibitory effect on P450 enzymes in vitro (human liver microsomes), CYP2C8; assay type: in vitro ADME; details: probe paclitaxel, final concentration 10 µM, substrate paclitaxel, read-out: % inhibition rate CYP2C8 (paclitaxel)
T2 construct: from tissue; host or cells: human liver microsomes
T2 sequence (P10632 1-490): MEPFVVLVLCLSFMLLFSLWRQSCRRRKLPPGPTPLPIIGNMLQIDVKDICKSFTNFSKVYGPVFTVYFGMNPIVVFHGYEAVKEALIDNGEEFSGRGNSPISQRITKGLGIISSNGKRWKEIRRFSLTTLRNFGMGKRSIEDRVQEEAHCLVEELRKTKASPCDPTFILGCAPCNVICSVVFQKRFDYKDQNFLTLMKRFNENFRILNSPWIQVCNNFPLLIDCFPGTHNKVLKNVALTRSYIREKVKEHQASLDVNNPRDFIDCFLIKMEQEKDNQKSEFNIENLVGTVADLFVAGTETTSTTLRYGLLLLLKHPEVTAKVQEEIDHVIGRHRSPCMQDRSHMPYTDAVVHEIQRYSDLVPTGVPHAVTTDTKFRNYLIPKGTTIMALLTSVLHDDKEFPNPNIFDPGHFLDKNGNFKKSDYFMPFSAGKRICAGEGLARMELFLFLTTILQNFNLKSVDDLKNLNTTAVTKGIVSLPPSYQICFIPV
Method: as §1, §2, §3

SMILES	inhibition at 20 min, 10 µM (CYP1A2)	inhibition at 10 min, 10 µM (CYP2C8)
COc1cc2c(cc1S(=O)(=O)Nc1noc3cc(Cn4cccn4)nc(OC)c13)CCCC2 [Example 2, N-(6-((1H-Pyrazol-1-yl)methyl)-4-methoxyisoxazolo[4,5-c]pyridin-3-yl)-3-methoxy-5,6,7,8-tetrahydronaphthalene-2-sulfonamide]	6.02%	16.4%
COc1ccc2ccoc2c1S(=O)(=O)Nc1noc2cc(Cn3cccn3)nc(OC)c12 [Example 10, N-(6-((1H-Pyrazol-1-yl)methyl)-4-methoxyisoxazolo[4,5-c]pyridin-3-yl)-6-methoxybenzofuran-7-sulfonamide]	-1.78%	3.71%
COc1cc2c(cc1S(=O)(=O)Nc1noc3cc(Cn4cccn4)nc(OC)c13)OCC2 [Example 59, N-(6-((1H-Pyrazol-1-yl)methyl)-4-methoxyisoxazolo[4,5-c]pyridin-3-yl)-5-methoxy-2,3-dihydrobenzofuran-6-sulfonamide]	1.93%	2.08%
